ChEMBL document CHEMBL1201862, “PubChem BioAssay data set” (2004)
Calls of active or inactive are those of the source.

Assays:
[1] = Luminescence-based cell-based high throughput dose response assay to identify activators of the DAF-12 from the parasite S. stercoralis (ssDAF-12).; format: functional
[2] = target: T1, Oxysterols receptor LXR-beta (Homo sapiens, UniProt P55055); assay: LXR agonists, Gal4 luciferase reporter, dose response, counter-screen for ssDAF-12 agonist project, cell-based, luminescence, HEK293, S. stercoralis campaign (AID 720737); format: functional; details: read-out: IC50 (the source's name)
T1 sequence (P55055 whole entry): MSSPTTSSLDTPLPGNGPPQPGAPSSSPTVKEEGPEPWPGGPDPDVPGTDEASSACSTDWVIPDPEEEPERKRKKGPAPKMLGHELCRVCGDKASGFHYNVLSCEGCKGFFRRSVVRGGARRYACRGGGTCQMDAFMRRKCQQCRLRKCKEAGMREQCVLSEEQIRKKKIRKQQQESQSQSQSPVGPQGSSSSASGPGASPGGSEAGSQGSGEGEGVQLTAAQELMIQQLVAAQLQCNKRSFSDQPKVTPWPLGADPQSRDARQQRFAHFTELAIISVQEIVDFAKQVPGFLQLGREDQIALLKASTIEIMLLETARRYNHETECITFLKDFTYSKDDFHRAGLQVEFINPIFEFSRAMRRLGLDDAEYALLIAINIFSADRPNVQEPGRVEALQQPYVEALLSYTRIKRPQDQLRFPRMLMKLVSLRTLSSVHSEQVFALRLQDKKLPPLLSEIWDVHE

[3] = Shn3 3'UTR reporter inhibitors, dose response, cell-based, Clone20 osteoblasts, firefly luciferase, cherry-picked (AID 624132); format: functional;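 further: firefly luciferase luminescence from reporter carrying the Shn3 3'UTR in osteoblasts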
[4] = HepG2 cell cytotoxicity, dose response, cytotoxicity control for Shn3 inhibitor project, CellTiter-Glo, cherry-picked (AID 624134); format: functional, cell-based
[5] = control 3'UTR Renilla luciferase suppression, dose response, counter-screen for Shn3 inhibitor project, cell-based, Clone20-Shn3RL, cherry-picked (AID 624133); format: functional
[6] = A549 cell cytotoxicity, dose response, cytotoxicity control, plate reader, cherry-pick, antagonist series (AID 743412); format: functional, cell-based
[7] = HepG2 cell cytotoxicity, dose response, cytotoxicity control, plate reader, cherry-pick, antagonist series (AID 743416); format: functional, cell-based
[8] = LGR2 antagonists, dose response, cell-based, HEK293, CRE-luciferase reporter, cherry pick, set 2 (AID 743343); format: functional;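 further: transfected cells were stimulated with diluted bursicon conditioned medium after compound addition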
[9] = MC4R antagonists, dose response, counter-screen for LGR2 antagonist project, cell-based, plate reader, cherry pick (AID 743444); format: functional;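 further: transfected HEK 293 cells stimulated with alpha-MSH peptide; potency of inhibitors of the alpha-MSH evoked signal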
[10] = HEK293 cell cytotoxicity, dose response, cytotoxicity control, plate reader, cherry-picked samples (AID 743446); format: functional, cell-based
[11] = HEK293T cell cytotoxicity, dose response, cytotoxicity control for HIV Vif inhibitor project, cherry-picks (AID 652208); format: functional, cell-based
[12] = HEp-2 cell cytotoxicity, dose response, cytotoxicity control for RSV inhibitor project, HTS (AID 2410); format: functional; details: human respiratory syncytial virus
[13] = target: T2, Mannose-6-phosphate isomerase (Homo sapiens, UniProt P34949); assay: human PMI inhibitors, high substrate, primary screen, biochemical, fluorescence intensity, high mannose 6-phosphate (AID 1220)
T2 sequence (P34949 whole entry): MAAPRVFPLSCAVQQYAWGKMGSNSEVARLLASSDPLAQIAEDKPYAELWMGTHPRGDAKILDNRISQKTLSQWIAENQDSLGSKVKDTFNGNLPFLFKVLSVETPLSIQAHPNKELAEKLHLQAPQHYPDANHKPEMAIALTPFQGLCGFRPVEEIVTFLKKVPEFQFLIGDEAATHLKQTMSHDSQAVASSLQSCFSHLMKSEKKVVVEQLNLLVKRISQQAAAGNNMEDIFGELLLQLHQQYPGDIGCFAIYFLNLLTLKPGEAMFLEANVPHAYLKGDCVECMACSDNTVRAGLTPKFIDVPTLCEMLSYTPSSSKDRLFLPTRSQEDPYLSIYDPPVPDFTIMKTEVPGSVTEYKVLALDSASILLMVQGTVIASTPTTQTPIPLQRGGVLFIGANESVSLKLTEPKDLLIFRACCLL

Paired box protein Pax-8 = Paired box protein Pax-8 (Homo sapiens, UniProt Q06710); assay: inhibitors of PAX8-driven TPO luciferase reporter, dose response, RMG-I cells, cherry-pick (AID 687027); format: functional, cell-based;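 further: luciferase reporter driven by Pax8 target thyroperoxidase promoter measured by SteadyGlo luminescence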
Paired box protein Pax-8, sequence (Q06710 whole entry): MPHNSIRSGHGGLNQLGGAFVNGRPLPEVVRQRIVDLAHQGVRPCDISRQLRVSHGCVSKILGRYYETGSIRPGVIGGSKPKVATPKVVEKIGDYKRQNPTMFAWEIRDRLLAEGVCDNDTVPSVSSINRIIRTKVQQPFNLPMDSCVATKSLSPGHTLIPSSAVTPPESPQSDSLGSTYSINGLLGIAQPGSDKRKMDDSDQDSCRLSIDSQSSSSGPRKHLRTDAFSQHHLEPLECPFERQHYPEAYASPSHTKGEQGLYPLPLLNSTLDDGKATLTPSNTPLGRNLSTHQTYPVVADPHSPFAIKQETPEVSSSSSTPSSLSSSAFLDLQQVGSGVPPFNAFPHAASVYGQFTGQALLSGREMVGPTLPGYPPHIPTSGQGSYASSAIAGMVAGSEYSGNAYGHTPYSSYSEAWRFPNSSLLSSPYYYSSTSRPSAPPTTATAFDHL

[14] = A2780 ovarian cancer cell cytotoxicity, dose response, cytotoxicity control, plate reader, dry powder samples (AID 743046); format: functional, cell-based
[15] = cytotoxicity in OVCAR8 ovarian cancer cells, dose response, PAX8 project, cell-based, plate reader, dry powder samples (AID 743197); format: functional; details: OVCAR-8
[16] = NIH-3T3 fibroblast cytotoxicity, dose response, cytotoxicity control, cell-based, fluorescence, Alamar Blue, secondary assay (AID 2327); format: functional;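 further: NIH-3T3 mouse fibroblasts cultured with fluconazole at 8 µg/mL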
[17] = C. albicans growth with fluconazole, confirmation, fluorescence, retest (AID 2467); format: functional, cell-based
[18] = growth suppression of PTEN-null colon cells, dose response, cell-based, HCT116 PTEN knockout (AID 1047); format: functional;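 further: HCT116 colon tumor cells with PTEN knocked out; cells exposed to compound for 60 hours before readout; potency for loss of cell viability measured by luminescence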
[19] = growth suppression of beta-catenin-knockout colon cells, dose response, cell-based, HCT116, human colon tumor (AID 1045); format: functional;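 further: HCT116 colon tumor cells with beta catenin knocked out; cells exposed to compound for 60 hours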
[20] = target: T3, Long-chain-fatty-acid--AMP ligase FadD28 (Mycobacterium tuberculosis, UniProt P9WQ59); assay: Fluorescence polarization aasay to screen for inhibitors that compete for the binding of FadD28 to a bisubstrate Measured in Biochemical System Using Plate Reader - 2147-01_Inhibitor_Dose_CherryPick_Activity.; format: functional, Mycobacterium tuberculosis H37Rv
T3 sequence (P9WQ59 whole entry): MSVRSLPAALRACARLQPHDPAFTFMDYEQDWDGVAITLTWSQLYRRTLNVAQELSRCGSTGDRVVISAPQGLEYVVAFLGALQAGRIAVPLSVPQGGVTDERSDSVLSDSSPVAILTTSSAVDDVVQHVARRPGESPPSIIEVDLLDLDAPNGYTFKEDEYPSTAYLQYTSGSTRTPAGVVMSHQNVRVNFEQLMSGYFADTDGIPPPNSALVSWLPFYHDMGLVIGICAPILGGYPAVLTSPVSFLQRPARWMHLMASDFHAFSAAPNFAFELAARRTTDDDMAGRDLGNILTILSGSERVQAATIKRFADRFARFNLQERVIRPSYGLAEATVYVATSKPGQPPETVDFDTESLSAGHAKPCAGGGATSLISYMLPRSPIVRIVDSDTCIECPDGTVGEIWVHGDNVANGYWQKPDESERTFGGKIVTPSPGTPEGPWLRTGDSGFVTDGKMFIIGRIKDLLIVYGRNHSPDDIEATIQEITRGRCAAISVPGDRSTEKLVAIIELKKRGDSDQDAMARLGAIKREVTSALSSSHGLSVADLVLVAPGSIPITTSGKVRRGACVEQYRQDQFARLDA

[21] = HeLa cell cytotoxicity, dose response, cytotoxicity control for MgcRacGAP inhibitor project (AID 624300); format: functional
[22] = target: T4, Rac GTPase-activating protein 1 (Homo sapiens, UniProt Q9H0H5); assay: MgcRacGAP GTPase-activating activity inhibitors, confirmation, biochemical, ADP Hunter fluorescence, primary and confirmatory (AID 624330); format: functional
T4 sequence (Q9H0H5 whole entry): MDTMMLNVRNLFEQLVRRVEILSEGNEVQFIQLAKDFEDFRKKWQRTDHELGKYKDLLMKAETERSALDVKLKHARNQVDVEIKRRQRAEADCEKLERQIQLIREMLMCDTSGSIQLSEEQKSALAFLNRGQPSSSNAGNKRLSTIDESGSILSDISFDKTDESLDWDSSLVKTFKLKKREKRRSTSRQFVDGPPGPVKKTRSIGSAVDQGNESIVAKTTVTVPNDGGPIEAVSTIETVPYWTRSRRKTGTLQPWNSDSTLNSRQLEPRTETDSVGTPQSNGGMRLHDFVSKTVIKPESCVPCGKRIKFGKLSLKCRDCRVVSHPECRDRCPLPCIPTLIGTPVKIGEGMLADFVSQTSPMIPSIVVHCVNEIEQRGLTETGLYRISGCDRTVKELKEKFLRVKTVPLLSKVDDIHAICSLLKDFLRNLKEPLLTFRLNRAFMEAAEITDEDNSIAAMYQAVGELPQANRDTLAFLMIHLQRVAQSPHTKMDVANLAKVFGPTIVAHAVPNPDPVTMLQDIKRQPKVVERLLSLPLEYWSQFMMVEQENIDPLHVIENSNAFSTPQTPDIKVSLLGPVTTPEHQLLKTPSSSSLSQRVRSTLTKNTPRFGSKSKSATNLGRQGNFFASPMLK

Cytochrome P450 3A4 = Cytochrome P450 3A4 (Homo sapiens, UniProt P08684);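 further: CYP3A4 tested as one member of a cytochrome P450 panel screen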
Cytochrome P450 3A4, sequence (P08684 whole entry): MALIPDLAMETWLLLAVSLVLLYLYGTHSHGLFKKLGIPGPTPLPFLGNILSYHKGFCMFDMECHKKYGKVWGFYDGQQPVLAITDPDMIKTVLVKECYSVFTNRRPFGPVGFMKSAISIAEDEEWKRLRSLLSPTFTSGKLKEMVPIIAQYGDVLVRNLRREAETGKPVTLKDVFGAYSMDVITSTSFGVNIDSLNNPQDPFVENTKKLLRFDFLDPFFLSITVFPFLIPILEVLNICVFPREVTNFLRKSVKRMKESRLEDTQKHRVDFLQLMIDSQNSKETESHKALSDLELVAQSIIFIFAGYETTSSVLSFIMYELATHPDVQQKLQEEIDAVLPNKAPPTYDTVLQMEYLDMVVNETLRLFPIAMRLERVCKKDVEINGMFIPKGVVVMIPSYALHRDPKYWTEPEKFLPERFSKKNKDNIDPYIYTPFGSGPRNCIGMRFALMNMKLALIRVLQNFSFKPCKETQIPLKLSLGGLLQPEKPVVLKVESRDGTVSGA

Cytochrome P450 2C9 = Cytochrome P450 2C9 (Homo sapiens, UniProt P11712)
Cytochrome P450 2C9, sequence (P11712 whole entry): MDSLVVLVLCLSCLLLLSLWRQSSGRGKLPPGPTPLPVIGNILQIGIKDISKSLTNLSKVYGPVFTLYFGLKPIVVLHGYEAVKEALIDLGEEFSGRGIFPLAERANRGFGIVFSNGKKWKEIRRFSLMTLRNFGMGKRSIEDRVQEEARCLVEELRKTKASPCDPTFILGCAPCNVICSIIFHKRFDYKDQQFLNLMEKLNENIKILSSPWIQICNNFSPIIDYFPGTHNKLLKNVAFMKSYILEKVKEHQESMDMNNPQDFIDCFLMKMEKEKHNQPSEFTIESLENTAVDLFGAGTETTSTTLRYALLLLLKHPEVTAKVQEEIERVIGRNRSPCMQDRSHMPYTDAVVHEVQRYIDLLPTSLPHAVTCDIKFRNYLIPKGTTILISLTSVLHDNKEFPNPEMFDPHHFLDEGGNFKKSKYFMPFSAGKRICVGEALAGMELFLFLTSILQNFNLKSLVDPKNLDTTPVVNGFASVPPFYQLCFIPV

## O=C(CNC(=O)c1cccs1)OCC(=O)c1ccc(Cl)cc1
[1]
  IC50: > 67.5 µM (inactive)
[2]
  EC50: > 67.5 µM (inactive)

## CC(C)c1ccc(NC(=O)Nc2nc(C(N)c3ccccc3)cs2)cc1 (stereo not given)
[3]
  AC50: 2.48 µM (active)
[4]
  AC50: 13.5 µM (active)
[5]
  AC50: 15.4 µM (active)
[6]
  AC50: 7.84 µM (active)
[7]
  AC50: 8.5 µM (active)
[8]
  AC50: 25.5 µM (active)
[9]
  AC50: 29 µM (active)
[10]
  AC50: 16 µM (active)

## COc1ccc(C=C2CS(=O)(=O)CC(=Cc3ccc(OC)cc3)C2=O)cc1
[11]
  AC50: 4.33 µM (active)

## CC(C)C/N=C/c1c(O)c([N+](=O)[O-])cc2oc3c(c12)CCCC3
[12]
  CC50: 25.3 µM (active)
[13]
  IC50: > 50 µM (not active)

## O=C(C[C@@H]1CC[C@H]2[C@@H](COC[C@H](O)CN2C(=O)Nc2ccc(Cl)c(Cl)c2)O1)NCc1ccc(Cl)cc1
Paired box protein Pax-8
  AC50: 13.5 µM (active)
[14]
  AC50: 11.9 µM (active)
[15]
  AC50: > 70 µM (inactive)

## C[C@H](CO)N1C[C@H](C)[C@H](CN(C)Cc2ccc(C(F)(F)F)cc2)Oc2ccc(NC(=O)Nc3ccccc3)cc2C1=O
[6]
  AC50: 7.64 µM (active)
[7]
  AC50: > 47 µM (inactive)
[8]
  AC50: 27.4 µM (active)
[9]
  AC50: 20.2 µM (active)
[10]
  AC50: > 47 µM (inactive)

## Cn1c(N/N=C/c2c[nH]c3ccccc23)nc2ccccc21
[16]
  EC50: > 150 µM (inactive)
[17]
  EC50: > 38 µM (not active)
[18]
  EC50: 2.96 µM (active)
[19]
  EC50: 2.81 µM (active)
[20]
  AC50: 52.1 µM (active)
[21]
  CC50: 100 µM (active)
[22]
  IC50: 44.4 µM (active)
Cytochrome P450 3A4
  AC50: 20 µM (inconclusive)
Cytochrome P450 2C9
  AC50: 28.2 µM (inconclusive)
